For assay [1], the system named is cell cycle genes in TNBC tumors. The assay is described as follows: Real-time PCR of cell cycle genes in PDX tumors. It counts as in vivo, mouse. As to conditions: tumor tissue. As for the experimental part:
FIG. 13 illustrates an embodiment of the present invention and illustrates the effects of SIM-1 and SIM-2 on the growth arrest of TNBC tumors. […] The higher magnification images were given below. (B) Area of 50 randomly selected cells (10 different images from n=5 mice/group) from three different groups were measured using polygon tool of ImageJ software and then the scatter histogram analysis was performed using GraphPad Prism 10 statistical software package. The significance of mean between groups (***p<0.001 versus control) was calculated by one-way ANOVA analysis (effector: treatment). (C) IHC staining of cell growth marker Ki-67 in vehicle-, SIM-1-, and SIM-2-treated tumors represents the cell growth property of tumor cells. […] Both hematoxylin-ir nuclei (total cells) and Ki-67-ir cells were counted in n=15 images per group, converted in percent scale, and then plotted as scatter histogram. ****p<0.0001 vs. control as derived by one-way ANOVA. (E) IHC staining of cell proliferation marker PCNA in three different groups. (F) Scatter histogram analysis of […] counted from n=15 images per group and then plotted as percent scale. […] (G) A gene array of 84 genes in a validated human breast cancer gene array (RT^2 Profiler™ PCR array; Cat #PAHS-131ZA; Qiagen) was conducted in cDNA samples extracted from TNBC tumors of vehicle, SIM-1- and SIM-2-treated (n=3) groups. The resultant gene expressions were converted in log scale and then compared with the vehicle in (G) SIM-1 and (H) SIM-2 treated groups as shown in scatter plots. […] (I) Validation of gene expressions of CCND1, CCND2, CCNE1, CDK2 genes were performed by real-time PCR analysis. (J) Upregulations of CDKN1A, and CDKN2A in SIM-1- and SIM-2-treated groups were validated by real-time PCR analyses. were Significance of mean calculated by one-way ANOVA resulted […] versus respective vehicle-groups. The results are confirmed after three different experiments.
To assess the histopathological changes in tumor parenchyma, H&E staining of tumor tissue was performed in three different groups (FIG. 13A). The hematoxylin-stained cells appeared with enlarged and densely colored nuclei characteristic of growing and mitotic tumor cells. […] The result was further corroborated with the quantitative analyses of cell size (FIG. 13B). […] To further confirm, we performed a gene array with a validated RNA array kit (Qiagen) of genes that are involved in the growth and proliferation of breast cancer cells. Relative expressions of different genes were summarized by heatmap clusterogram analyses (FIG. 14D).

The next assay has as its system MDA-MB-468 cells. The assay is described as follows: TUNEL assay in MDA-MB-468 cells. It counts as cell-based, human. As to conditions: 25 nM. As for the experimental part: FIG. 11 illustrates an embodiment of the present invention and illustrates SIM-1 and SIM-2 induced apoptosis in MDA-MB-468 TNBC cells, but not HMEC control cells. MDA-MB-468 cells were treated with increasing doses of (A) SIM-1 and (B) SIM-2 for 48 hrs followed by lactate dehydrogenase (LDH) release assay in the supernatants. The result was offset with cell-bound LDH and presented as a percent of DMSO control as discussed under method section. Half-maximal cytotoxicity or CT50 analyses were performed plotting maximum response as an index of increasing doses of (C) SIM-1 and (D) SIM-2. AnnexinV (green) and propidium iodide (red) dual-labeling were performed to evaluate apoptotic response in MDA-MB-468 cells once treated with increasing doses of (E) SIM-1 and (F) SIM-2 for 24 hrs. […] (H) The number of TUNEL bodies were counted as a percent of 100 cresyl violet-stained blue cells. Ten independent images were counted for the quantification study. Similarly, SIM-2 was assessed for (I) TUNEL and (J) subsequent quantification analyses. […]
This example provides a representative experiment that studies if SIM-1 and SIM-2 promoted the death of TNBC cells. […] During apoptosis, phosphatidyl serine of the plasma membrane flips from the inner to the outer membrane which can be detected by Annexin V labeling, whereas PI stains the nucleus of a cell with compromised integrity of the plasma membrane. […]

`O=C(O)CCC(=O)NCc1csc2ccc(Cl)cc12` [SIM-1, 4-[(5-chloro-1-benzothiophen-3-yl)methylamino]-4-oxobutanoic acid]: in assay [1], the “expression of CCND1, CCND2, CCNE1 and CDK2 (real-time PCR)” value is listed as “strongly suppressed”; the “expression of CDKN1A and CDKN2A (real-time PCR)” value is given as “significantly induced”. Also, the TUNEL response entry with MDA-MB-468 cells is “strongly induced”.

With `CCOC(=O)c1c(NC(C)=O)sc2c(Cl)c(/C=N/O)ccc12` [SIM-2, ethyl 2-acetamido-7-chloro-6-(hydroxyiminomethyl)-1-benzothiophene-3-carboxylate], in assay [1], the “expression of CCND1, CCND2, CCNE1 and CDK2 (real-time PCR)” value is recorded as “strongly suppressed”; the “expression of CDKN1A and CDKN2A (real-time PCR)” value is listed as “significantly induced”. Besides, the TUNEL response result with MDA-MB-468 cells is “strongly induced”.

The record behind these values is US20250255847A1, “[…]s: Novel Drugs for Triple Negative Breast Cancer” (SIMMARON RSEARCH INC, priority 2024, published 2025).
